Measurements reported in patent US20080090278A1, “METHOD FOR ENHANCING STABILITY OF A COMPOSITION COMPRISING SOLUBLE GLUCOSE DEHYDROGENASE (GDH)” (TOYO BOSEKI KABUSHIKI KAISHA, priority 2006, published 2008).

How the values were obtained:
Format in all cases: physicochemical
[1] = system: recombinant FAD-GDH preparation (rAO-FAD-GDH) derived from Aspergillus oryzae; assay: Storage stability of freeze-dried (powdered) rAO-FAD-GDH with stabilizing agents (Example 8); settings: for storage stabilization effect on the powdered enzyme (in words): Example 8, Tables 7 and 8; for GDH activity Residual ratio (%): 70% humidity
Procedure: (§1) The reaction reagent (3 mL) is preliminarily heated at 37° C. for 5 minutes. The GDH solution (0.1 mL) is added and gently mixed, subsequently the change of absorbance at 600 nm is recorded for 5 minutes using the spectrophotometer controlled to 37° C. using water as the control, and the change of absorbance per one minute (ΔODTEST) is calculated from the linear portion of the record. The solvent in which GDH will be dissolved in place of the blinded GDH solution is added to the reagent mixture, and the change of absorbance (ΔODBLANK) per one minute is measured. The GDH activity is calculated from these values according to the following formula. One unit (U) in the GDH activity is defined as the amount of the enzyme which reduces […] DCPIP for one minute in the presence of 200 mM D-glucose. Activity (U/mL)=[−(ΔODTEST−ΔODBLANK)×3.0×dilution scale]/(16.3×0.1×1.0) In the above formula, 3.0 represents a liquid amount (mL) of the reaction reagent+the enzyme solution, 16.3 represents a millimolar molecular absorbance coefficient (cm^2/μmol) in the condition for measuring this enzyme, 0.1 represents the liquid amount of the enzyme solution (mL) and 1.0 represents a light path length (cm) of the cell.
The study was performed using the recombinant FAD-GDH preparation (rAO-FAD-GDH) derived from Aspergillus oryzae obtained in Example 1 in accordance with the method for measuring the FAD-GDH activity in Test Example 1 above. The amount of the protein which occupied in the FAD-GDH enzyme solution was measured, and 1 mL of the solution in which the stabilizing agent corresponding to 60% or 30% relative to this had been dissolved therein was prepared.
Several vials in which 0.2 mL of the enzyme solution containing each stabilizing agent had been correctly dispensed were prepared. As the control, the vials in which the stabilizing agent had not been added was prepared. The prepared vials were subjected to vacuum freeze-dry (FDR) to completely evaporate the water. Then, only two samples in which the same stabilizing agent had been added were subjected to the measurement of the activity. Meanwhile, the remaining vials were treated at 25° C. at a humidity of 70% for several hours, and then stored at 37° C. for one week. Subsequently, the residual activity was measured. The residual activity ratio (%) was calculated by making the average activity immediately after FDR 100% and measuring the average activity of the samples after storing at 37° C.

[2] = system: recombinant FAD-GDH (rAO-FAD-GDH) derived from Aspergillus oryzae; assay: Thermal stabilization effect of stabilizing agents on rAO-FAD-GDH in solution (Examples 3-6); settings: for GDH Residual activity ratio (%) after treatment at 50° C., 15 min: final concentration BSA 2.5%, serine 10%, alone or combined; for thermal stabilization effect on FAD-GDH (in words): rAO-FAD-GDH, 50° C. for 15 minutes, Example 3; for Residual activity ratio (%) after treatment at 50° C., 15 min: stabilizer final concentration 1%, rAO-FAD-GDH about 2 U/mL, 50 mM potassium phosphate buffer pH 5.5, 0.1% Triton X-100, 4° C. sample = 100
Procedure: Enhancement of the thermal stability referred to herein means increasing of a residual ratio (%) of the GDH enzyme kept after giving the treatment with heat at a certain temperature for a certain time period to the composition comprising the GDH enzyme. In the present invention, the activity in the sample stored at 4° C. which is nearly completely kept is made 100%, this is compared with the activity in the GDH solution after giving the treatment with heat at a certain-temperature for a certain time period, and the residual ratio of the enzyme is calculated.
In the method for measuring the activity described in the method for measuring the GDH enzyme activity described later, an activity value (a) of GDH in the solution stored at 4° C. and an activity value (b) of GDH after giving the treatment with heat at a certain temperature for a certain time period were measured, a relative value[(b)/(a)×100] when the activity value (a) was made 100 was calculated. This relative value was made the residual ratio (%). Comparing the presence with the absence of the added compound, when the residual ratio was increased by the addition of the compound, it was determined that the thermal stability was enhanced.
In the present invention, the activity of FAD-dependent GDH is measured as follows.
The reaction-reagent is made by mixing 15.6 mL of the PIPES buffer, 0.2 mL of the DCPIP solution and 4 mL of the D-glucose solution.
as §1
The study was performed in accordance with the method for measuring the FAD-GDH activity in Test Example 1 described above.
First, 50 mL of an enzyme solution obtained by dissolving the recombinant FAD-GDH (rAO-FAD-GDH)-derived from Aspergillus oryzae obtained in Example 1 at about 2 U/mL in an enzyme dilution solution (50 mM potassium phosphate buffer, pH 5.5, 0.1% Triton X-100) was prepared. Two tubes in which each stabilizing agent described in Table 1 had been added at each final concentration to 0.9 mL of this enzyme solution to make the total volume 1.0 mL were prepared.
(§2) In two tubes, one tube was stored at −4° C. and another tube was treated at 50° C. for 15 minutes. Then, the FAD-GDH activity in each tube was measured. The enzyme activity in the tube stored at 4° C. was made 100, and comparing with it, the activity value after being treated at 50° C. for 15 minutes was calculated as the residual activity ratio (%).
The method was in accordance with Example 3 described above.
The methods were in accordance with Example 3 above.

[3] = system: recombinant FAD-GDH (rAT-FAD-GDH) derived from Aspergillus terreus; assay: Thermal stabilization effect of stabilizing agents on rAT-FAD-GDH in solution (Example 9); settings: for Residual activity ratio (%) / GLD activity value (U/ml) 50° C., 15 min: Table 10, buffer 50 mM K-PB, stabilizer at each final concentration described in Table 1; for Residual activity ratio (%): 50° C., 15 min versus 4° C.; for thermal stabilization effect on FAD-GDH (in words): rAT-FAD-GDH, 50° C. for 15 minutes, Example 9
Procedure: as §1, with “D-glucose.” for “D-glucose. Activity (U/mL)=[−(ΔODTEST−ΔODBLANK)×3.0×dilution scale]/(16.3×0.1×1.0) In the above formula, 3.0 represents a liquid amount (mL) of the reaction reagent+the enzyme solution, 16.3 represents a millimolar molecular absorbance coefficient (cm^2/μmol) in the condition for measuring this enzyme, 0.1 represents the liquid amount of the enzyme solution (mL) and 1.0 represents a light path length (cm) of the cell.”
Two tubes in which each stabilizing agent described in Table 1 had been added at each final concentration to 0.9 mL of this enzyme solution to make the total volume 1.0 mL were prepared.
as §2, with “4°” for “−4°”

[4] = system: recombinant FAD-GDH (rAO-FAD-GDH) derived from Aspergillus oryzae; assay: Thermal stabilization effect of stabilizing agents on rAO-FAD-GDH in solution (Examples 3-6)
[5] = Table 4, each stabilizer at final concentration 1%, alone or in pairs

| storage stabilization effect on the powdered enzyme (in words) [1] | GDH activity Residual ratio (%) ([1]; Table 7, stabilizer 60%, 25° C., 24 h, then 37° C. for 1 week, activity immediately after FDR = 100%) | GDH Residual activity ratio (%) after treatment at 50° C., 15 min ([2]; Table 3) | GDH Residual activity ratio (%) after treatment at 50° C., 15 min ([2]; Table 3 second column) | thermal stabilization effect on FAD-GDH (in words) [2] | Residual activity ratio (%) after treatment at 50° C., 15 min [2] | Residual activity ratio (%) [3] | thermal stabilization effect on FAD-GDH (in words) [3] | GDH activity Residual ratio (%) ([1]; Table 8, stabilizer 60%, 25° C., 7 h, then 37° C. for 1 week) | GDH Residual activity ratio (%) after treatment at 50° C., 30 min [4, 5] | GDH Residual activity ratio (%) after treatment at 50° C., 30 min ([4]; final concentration 0.01%) | GDH Residual activity ratio (%) after treatment at 50° C., 30 min ([4]; final concentration 0.1%) | GDH Residual activity ratio (%) after treatment at 50° C., 30 min ([4]; final concentration 1%) | thermal stabilization effect of trehalose (in words) ([4]; final concentration of 0.01%, 50° C., 30 min) | Structure (SMILES) | GDH activity (kU/vial) Immediately after pulverization ([1]; Table 7, stabilizer 60% relative to FAD-GDH protein, vacuum freeze-dry) | GDH activity (kU/vial) After 1 week at 37° C. ([1]; Table 7, stabilizer 60%, after treatment at 70% humidity, 25° C., 24 h, then 37° C. for 1 week) | GLD activity value (U/ml) 50° C., 15 min [3] | GDH activity (U/vial) Immediately after pulverization ([1]; Table 8, stabilizer 60%) | GDH activity (U/vial) Immediately before pulverization ([1]; Table 8, stabilizer 60%) | GDH activity (U/vial) At 37° C. for 1 week ([1]; Table 8, stabilizer 60%, after treatment at 70% humidity, 25° C., 7 h, then 37° C. for 1 week) |
| --- | --- | --- | --- | --- | --- | --- | --- | --- | --- | --- | --- | --- | --- | --- | --- | --- | --- | --- | --- | --- |
| enhance the stability | 41.3% | 33% | 11.5% | high effect | 27.0% | 3.0% | high effect |  |  |  |  |  |  | N[C@@H](CO)C(=O)O [L-serine] | 19.8 kU/vial | 8.2 kU/vial | 0.078 U/ml |  |  |  |
| enhance the stability |  |  |  | high effect | 64.7% | 15.8% | high effect | 48.6% | 39.10% | 11.2% | 20.4% | 42.3% | the stabilization effect was exerted | O.O.OC[C@H]1O[C@H](O[C@H]2O[C@H](CO)[C@@H](O)[C@H](O)[C@H]2O)[C@H](O)[C@@H](O)[C@@H]1O [D-(+)-trehalosedihydrate] |  |  | 0.431 U/ml | 401 U/vial | 397 U/vial | 195 U/vial |
|  |  |  |  | high effect | 65.3% | 16.5% | high effect |  | 47.78% |  |  |  |  | O=C[C@@H](O)[C@@H](O)[C@H](O)[C@H](O)CO [D-(+)-mannose] |  |  | 0.448 U/ml |  |  |  |
|  |  |  |  | high effect | 26.4% | 3.3% | high effect |  | 4.84% |  |  |  |  | NCC(=O)O [Glycine] |  |  | 0.094 U/ml |  |  |  |
